Results from ChEMBL document CHEMBL3352500, “Identification and characterization of an anti-pseudomonal dichlorocarbazol derivative displaying anti-biofilm activity” (Bioorg Med Chem Lett, 2014).
Converted amounts (≈) assume the structure as drawn. The source made the active and inactive calls. No cut-off for these calls is given here.

What was measured:
Staphylococcus aureus [1] = experiment: Antibacterial activity against Staphylococcus aureus SH1000; format: functional
Pseudomonas aeruginosa [2] = experiment: Antibacterial activity against Pseudomonas aeruginosa after 24 hrs by two-fold broth microdilution method; format: functional
Escherichia coli [3] = experiment: Antibacterial activity against Escherichia coli TG1; format: functional
[4] = system: Staphylococcus epidermidis; experiment: Antibacterial activity against Staphylococcus epidermidis RP62A; format: functional
Porphyromonas gingivalis [5] = experiment: Antibacterial activity against Porphyromonas gingivalis ATCC 33277; format: functional
Escherichia coli [6] = experiment: Antibiofilm activity against Escherichia coli TG1 after 24 hrs; format: functional
Pseudomonas aeruginosa [7] = experiment: Antibacterial activity against ticarcillin-resistant Pseudomonas aeruginosa clinical isolate PA08; format: functional
Pseudomonas aeruginosa [8] = experiment: Antibacterial activity against ticarcillin-resistant Pseudomonas aeruginosa clinical isolate PA129; format: functional
Pseudomonas aeruginosa [9] = experiment: Antibiofilm activity against Pseudomonas aeruginosa PA14 after 24 hrs; format: functional
[10] = Cytotoxicity against human mesenchymal stem cells assessed as cell viability at 4.63 ug/ml after 2 hrs; format: cell-based; settings: read-out: Activity
Pseudomonas aeruginosa [11] = experiment: Antibacterial activity against ticarcillin-resistant Pseudomonas aeruginosa clinical isolate PA1271; format: functional
Pseudomonas aeruginosa [12] = experiment: Bactericidal activity against Pseudomonas aeruginosa; format: functional
Pseudomonas aeruginosa [13] = experiment: Antibacterial activity against ticarcillin-resistant Pseudomonas aeruginosa clinical isolate PA424; format: functional
Staphylococcus aureus [14] = experiment: Antibiofilm activity against Staphylococcus aureus SH1000 after 24 hrs; format: functional
Pseudomonas aeruginosa [15] = experiment: Antibacterial activity against Pseudomonas aeruginosa clinical isolate PA1270; format: functional
Porphyromonas gingivalis [16] = experiment: Antibiofilm activity against Porphyromonas gingivalis ATCC 33277 after 72 hrs; format: functional
Pseudomonas aeruginosa [17] = experiment: Antibacterial activity against wild-type Pseudomonas aeruginosa YM; format: functional
Pseudomonas aeruginosa [18] = experiment: Antibiofilm activity against Pseudomonas aeruginosa on smooth titanium disc assessed as dead cells in biofilm at 12 ug/ml after 19 hrs by confocal laser scanning microscopy relative to control; format: functional, organism-based
[19] = Cytotoxicity against human endothelial cells at 4.63 ug/ml after 2 hrs; format: cell-based; settings: endothelial cell
Pseudomonas aeruginosa [20] = experiment: Antibacterial activity against Pseudomonas aeruginosa YM64 expressing mexAB-oprM::FRT/mexXY::FRT/mexCD-oprJ::FRT/mexEF-oprN::FRT deletion mutant; format: functional
Pseudomonas aeruginosa [21] = experiment: Antibiofilm activity against Pseudomonas aeruginosa on smooth titanium disc assessed as reduction in total area fraction at 1 to 12 ug/ml after 19 hrs by confocal laser scanning microscopy; format: functional
Pseudomonas aeruginosa [22] = experiment: Antibacterial activity against ticarcillin/piperacillin-resistant Pseudomonas aeruginosa clinical isolate PA346; format: functional
Pseudomonas aeruginosa [23] = experiment: Antibacterial activity against ticarcillin/piperacillin/ceftazidime/cefepime-resistant Pseudomonas aeruginosa clinical isolate PA1255; format: functional
Pseudomonas aeruginosa [24] = experiment: Antibacterial activity against ticarcillin/cefepime-resistant Pseudomonas aeruginosa clinical isolate PA1250; format: functional
[25] = Cytotoxicity against human osteoblasts assessed as cell viability at 4.63 ug/ml after 2 hrs; format: cell-based, Osteoblast; settings: read-out: Activity
Pseudomonas aeruginosa [26] = experiment: Antibiofilm activity against Pseudomonas aeruginosa on smooth titanium disc at 3.7 ug/ml after 19 hrs by confocal laser scanning microscopy; format: functional, organism-based
Pseudomonas aeruginosa [27] = experiment: Antibacterial activity against ticarcillin-resistant Pseudomonas aeruginosa clinical isolate PA53; format: functional
Pseudomonas aeruginosa [28] = experiment: Antibacterial activity against Pseudomonas aeruginosa PA14; format: functional
[29] = Cytotoxicity against human endothelial cells assessed as effect on tube formation at 4.63 ug/ml after 4 hrs; format: cell-based; settings: endothelial cell
Pseudomonas aeruginosa [30] = experiment: Antibacterial activity against Pseudomonas aeruginosa clinical isolate PA1256; format: functional
Pseudomonas aeruginosa [31] = experiment: Antibiofilm activity against Pseudomonas aeruginosa assessed as decrease of culturable cells in biofilm at >= 4.63 ug/ml after 24 hrs by plate counting method; format: functional, organism-based
[32] = system: Staphylococcus epidermidis; experiment: Antibiofilm activity against Staphylococcus epidermidis RP62A after 72 hrs; format: functional

Q: With GENTAMICIN as the compound, how does the MIC (Staphylococcus aureus [1]) read?
A: 12.5 µg/mL

Q: With `CN(C)CC(O)Cn1c2ccc(Br)cc2c2cc(Br)ccc21` (stereo not drawn) as the compound, how does the MIC (Pseudomonas aeruginosa [2]) read?
A: 18.5 µg/mL (≈ 43.4 µM)

Q: With `CC1COc2c(N3CCN(C)CC3)c(F)cc3c(=O)c(C(=O)O)cn1c23` (stereo not drawn) [OFLOXACIN] as the compound, how does the MIC (Escherichia coli [3]) read?
A: 0.1 µg/mL (≈ 0.277 µM)

Q: For `OCCn1c2ccccc2c2cc(Cl)ccc21`, which MIC (Pseudomonas aeruginosa [2]) is on record?
A: 18.5 µg/mL (≈ 75.3 µM)

Q: For `OC(CNCC1CCCO1)Cn1c2ccc(Cl)cc2c2cc(Cl)ccc21` (stereo not drawn), which MIC (Pseudomonas aeruginosa [2]) is on record?
A: 18.5 µg/mL (≈ 47 µM)

Q: With `OC(CN1CCCCC1)Cn1c2ccc(Cl)cc2c2cc(Cl)ccc21` (stereo not drawn) as the compound, how does the MIC (Pseudomonas aeruginosa [2]) read?
A: 74 µg/mL (≈ 196 µM)

Q: With `CCN(CC)CC(O)Cn1c2ccc(Cl)cc2c2cc(Cl)ccc21` (stereo not drawn) as the compound, how does the MIC (Pseudomonas aeruginosa [2]) read?
A: 37 µg/mL (≈ 101 µM)

Q: For `O=C(O)c1cn(C2CC2)c2cc(N3CCNCC3)c(F)cc2c1=O` [CIPROFLOXACIN], which MIC [4] is on record?
A: 1.56 µg/mL (≈ 4.71 µM)

Q: With `N=C(NCCCCCCNC(=N)NC(=N)Nc1ccc(Cl)cc1)NC(=N)Nc1ccc(Cl)cc1` [CHLORHEXIDINE] as the compound, how does the MIC (Porphyromonas gingivalis [5]) read?
A: 4 µg/mL (≈ 7.91 µM)

Q: With `CN(CCO)CC(O)Cn1c2ccc(Cl)cc2c2cc(Cl)ccc21` (stereo not drawn) as the compound, how does the MIC (Pseudomonas aeruginosa [2]) read?
A: 18.5 µg/mL (≈ 50.4 µM)

Q: With `CCC(C)NCC(O)Cn1c2ccc(Cl)cc2c2cc(Cl)ccc21` (stereo not drawn) as the compound, how does the MIC (Pseudomonas aeruginosa [2]) read?
A: 18.5 µg/mL (≈ 50.6 µM)

Q: What about the MBIC90 (Escherichia coli [6]) of the same compound?
A: 2.22 µg/mL

Q: What about the MIC (Pseudomonas aeruginosa [7]) of the same compound?
A: 18.5 µg/mL (≈ 50.6 µM)

Q: And the MIC (Pseudomonas aeruginosa [8])?
A: 18.5 µg/mL (≈ 50.6 µM)

Q: And the MBIC (Pseudomonas aeruginosa [9])?
A: 18.5 µg/mL

Q: What about the viability at 2 h, 4.63 ug/ml [10] of the same compound?
A: > 80%

Q: And the MIC (Porphyromonas gingivalis [5])?
A: 4.63 µg/mL (≈ 12.7 µM)

Q: And the MIC (Pseudomonas aeruginosa [11])?
A: 18.5 µg/mL (≈ 50.6 µM)

Q: What about the MBC (Pseudomonas aeruginosa [12]) of the same compound?
A: 18.5 µg/mL (≈ 50.6 µM)

Q: What about the MIC (Pseudomonas aeruginosa [13]) of the same compound?
A: 18.5 µg/mL (≈ 50.6 µM)

Q: What about the MBIC (Staphylococcus aureus [14]) of the same compound?
A: 9.25 µg/mL

Q: What about the MIC (Pseudomonas aeruginosa [15]) of the same compound?
A: 18.5 µg/mL (≈ 50.6 µM)

Q: And the MBIC (Porphyromonas gingivalis [16])?
A: 5.11 µg/mL

Q: And the MIC (Staphylococcus aureus [1])?
A: 9.25 µg/mL (≈ 25.3 µM)

Q: What about the MIC (Pseudomonas aeruginosa [17]) of the same compound?
A: 18.5 µg/mL (≈ 50.6 µM)

Q: What about the Activity (Pseudomonas aeruginosa [18]) of the same compound?
A: Active

Q: What about the Activity [19] of the same compound?
A: Toxic

Q: And the MIC (Pseudomonas aeruginosa [20])?
A: 4.63 µg/mL (≈ 12.7 µM)

Q: And the “inhibition (INH)” value (Pseudomonas aeruginosa [21])?
A: 50%

Q: What about the MIC (Pseudomonas aeruginosa [22]) of the same compound?
A: 18.5 µg/mL (≈ 50.6 µM)

Q: What about the MIC (Pseudomonas aeruginosa [23]) of the same compound?
A: 18.5 µg/mL (≈ 50.6 µM)

Q: And the MIC (Pseudomonas aeruginosa [24])?
A: 18.5 µg/mL (≈ 50.6 µM)

Q: And the viability at 2 h, 4.63 ug/ml [25]?
A: > 80%

Q: What about the MIC [4] of the same compound?
A: 9.25 µg/mL (≈ 25.3 µM)

Q: And the Activity (Pseudomonas aeruginosa [26])?
A: Active

Q: And the MIC (Pseudomonas aeruginosa [27])?
A: 18.5 µg/mL (≈ 50.6 µM)

Q: What about the MIC (Pseudomonas aeruginosa [28]) of the same compound?
A: 18.5 µg/mL (≈ 50.6 µM)

Q: What about the Activity [29] of the same compound?
A: Non-toxic

Q: And the MIC (Pseudomonas aeruginosa [30])?
A: 9.25 µg/mL (≈ 25.3 µM)

Q: What about the MIC (Escherichia coli [3]) of the same compound?
A: 4.63 µg/mL (≈ 12.7 µM)

Q: What about the Activity (Pseudomonas aeruginosa [31]) of the same compound?
A: Active

Q: What about the MBIC [32] of the same compound?
A: 9.25 µg/mL

Q: With `OCCN(CCO)CC(O)Cn1c2ccc(Cl)cc2c2cc(Cl)ccc21` (stereo not drawn) as the compound, how does the MIC (Pseudomonas aeruginosa [2]) read?
A: > 74 µg/mL
